Counter-ions that a name gives are not always drawn.
Tests used:
[1] = system: pancreatitis induced by choline-deficient ethionine supplemented diet; assay: Inhibitory activity against pancreatitis induced by choline-deficient ethionine supplemented diet (CDE diet); serum amylase activity as index of pancreatitis; type: in vivo, ICR female mouse; conditions: serum 64 h after start of CDE diet, twice a day, 6 times in total
Procedure: Pancreatitis of a mouse was induced by choline-deficient ethionine supplemented diet (CDE diet). A modified method of Lombardi et al [Lombardi et al, Am. J. Pathol., 79, 465-480 (1975)] was carried out. Briefly, the pancreatitis was induced by feeding an ICR female mouse (Charles River Japan, Inc. three-weeks old) choline deficient diet to which 0.5% (w/w) DL-ethionine was added (CDE diet). Sixty four hours after the feeding with the CDE diet, approximately 0.3 ml of the blood was collected from the heart of the mouse under anesthesia with ether. The collected blood was allowed to stand at room temperature for 2 hours to coagulate, followed by centrifugation (at 12,000 rpm for 10 minutes), to obtain serum. The amylase activity in the serum was measured by an amylase activity assay kit (Amylase B-Test Wako, product of Wako Pure Chemical Industries, Ltd.) and was designated as an index of pancreatitis. The test compound suspended in a 0.5% (w/v) tragacanth solution was administered to mice one hour before the feeding of the CDE diet and was administered twice a day, 6 times in total. The control group was fed with the CDE diet to induce pancreatitis but the test compounds were not administered to the control group. The normal group was not fed with the CDE diet but was fed with ordinary food.

[2] = system: cerulein-induced pancreatitis; assay: Inhibitory activity against cerulein-induced pancreatitis; serum amylase activity as index of pancreatitis; type: in vivo, Wistar rats; conditions: Table 6, serum 3 h after final cerulein (20 µg/kg i.p., four times), control group 48.7
Procedure: Induction of experimental acute pancreatitis in rats was carried out by a modified method of Otsuki et al [Otsuki et al, Dig. Dis. Sci., 35, 242-250 (1990)]. Briefly, cerulein (20 µg/kg) was intraperitoneally administered to Wistar rats (Japan SLC, weight: about 200 g) every one hour, four times in total. Three hours after the final administration, the blood was collected from the jugular vein of the rat under anesthesia with ether. The collected blood was allowed to stand at room temperature for 2 hours to coagulate, followed by centrifugation (at 12,000 rpm for 10 minutes), to obtain serum. The amylase activity of the serum was measured using an amylase activity assay kit (Amylase B-Test Wako, product of Wako Pure Chemical Industries, Ltd.) and was designated as an index of pancreatitis. The test compound suspended in a 0.5% (w/v) tragacanth solution was orally administered 30 minutes before the first injection of the cerulein. The control group is defined as a group in which pancreatitis was induced, but to which the test compounds were not administered.

[3] = Table 4, dose 10 mg/kg, control group 64.7, normal group 6.6
[4] = Table 4, dose 30 mg/kg, control group 64.7, normal group 6.6

Compound: COc1cccc(CCc2ccccc2OCC[C@@H]2C[C@@H](O)CN2C)c1.Cl [Preparation Example 18, (2R,4R)-4-Hydroxy-2-[2-[2-[2-(3-methoxyphenyl)ethyl]phenoxy]ethyl]-1-methylpyrrolidine hydrochloride]
- Amylase activity ([1]; Table 5, dose 10 mg/kg, control group 48.0, normal group 8.7): 25.7 IU/ml
- Amylase activity ([1]; Table 5, dose 30 mg/kg, control group 48.0, normal group 8.7): 21.8 IU/ml

Compound: COc1cc(CCc2cc(F)ccc2OCC[C@@H]2C[C@@H](O)CN2C)ccc1F [Preparation Example 2, (2R,4R)-2-[2-[4-Fluoro-2-[2-(4-fluoro-3-methoxypheny)ethyl]phenoxy]ethyl]-4-hydroxy-1-methylpyrrolidine hydrochloride]
- Amylase activity [1, 3]: 53.7 IU/ml
- Amylase activity [1, 4]: 31.2 IU/ml

Compound: COc1cc(CCc2ccccc2OCC[C@@H]2C[C@@H](O)CN2C)ccc1F.Cl [Preparation Example 4, (2R,4R)-2-[2-[2-[2-(4-Fluoro-3-methoxyphenyl)ethyl]phenoxy]ethyl]-4-hydroxy-1-methylpyrrolidine hydrochloride]
- Amylase activity [1, 3]: 48.4 IU/ml
- Amylase activity [1, 4]: 30.5 IU/ml

Compound: CCCCCCCCCCCC(=O)O[C@@H]1C[C@@H](CCOc2ccccc2CCc2cccc(OC)c2)N(C)C1.Cl [Preparation Example 3, (2R,4R)-4-Lauroyloxy-2-[2-[2-[2-(3-methoxyphenyl)ethyl]phenoxy]ethyl]-1-methylpyrrolidine hydrochloride]
- Amylase activity ([1]; Table 3, dose 10 mg/kg, control group 71.7, normal group 7.4): 35.0 IU/ml
- Amylase activity ([1]; Table 3, dose 30 mg/kg, control group 71.7, normal group 7.4): 32.1 IU/ml
- Amylase activity ([2]; dose 10 mg/kg orally 30 minutes before first cerulein): 43.6 IU/ml
- Amylase activity ([2]; dose 30 mg/kg orally 30 minutes before first cerulein): 34.9 IU/ml
- Amylase activity ([2]; dose 100 mg/kg orally 30 minutes before first cerulein): 31.7 IU/ml
